Data from patent US20230272448A1, “AN IMPROVED SUBSTRATE COCKTAIL ASSAY FOR HIGH-THROUGHPUT SCREENING OF CYTOCHROME P450 INHIBITORS” (priority 2020, published 2023).

What was measured:
CYP2C8 [1] = target: T1, CYP2C8 (Homo sapiens, UniProt P10632); details: literature reported Km; metabolite 6-alpha hydroxyl-paclitaxel; cited from earlier work
T1 sequence (P10632 1-490): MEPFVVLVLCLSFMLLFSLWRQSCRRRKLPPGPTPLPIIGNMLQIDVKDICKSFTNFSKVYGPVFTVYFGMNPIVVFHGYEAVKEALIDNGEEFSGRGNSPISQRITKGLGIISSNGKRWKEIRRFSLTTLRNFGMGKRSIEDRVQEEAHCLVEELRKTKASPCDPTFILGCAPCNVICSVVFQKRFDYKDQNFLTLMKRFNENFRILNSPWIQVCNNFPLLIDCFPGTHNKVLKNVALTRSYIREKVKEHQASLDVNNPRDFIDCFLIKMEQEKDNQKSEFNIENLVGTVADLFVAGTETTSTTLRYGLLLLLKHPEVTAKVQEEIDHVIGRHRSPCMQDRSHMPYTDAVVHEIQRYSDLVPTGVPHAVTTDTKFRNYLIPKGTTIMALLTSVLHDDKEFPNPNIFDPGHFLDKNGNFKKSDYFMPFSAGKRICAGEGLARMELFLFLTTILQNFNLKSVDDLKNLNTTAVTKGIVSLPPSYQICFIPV

CYP2A6 = target: T2, CYP2A6 (Homo sapiens, UniProt P11509); details: literature reported Km; metabolite hydroxyl-coumarine; cited from earlier work
T2 sequence (P11509 1-494): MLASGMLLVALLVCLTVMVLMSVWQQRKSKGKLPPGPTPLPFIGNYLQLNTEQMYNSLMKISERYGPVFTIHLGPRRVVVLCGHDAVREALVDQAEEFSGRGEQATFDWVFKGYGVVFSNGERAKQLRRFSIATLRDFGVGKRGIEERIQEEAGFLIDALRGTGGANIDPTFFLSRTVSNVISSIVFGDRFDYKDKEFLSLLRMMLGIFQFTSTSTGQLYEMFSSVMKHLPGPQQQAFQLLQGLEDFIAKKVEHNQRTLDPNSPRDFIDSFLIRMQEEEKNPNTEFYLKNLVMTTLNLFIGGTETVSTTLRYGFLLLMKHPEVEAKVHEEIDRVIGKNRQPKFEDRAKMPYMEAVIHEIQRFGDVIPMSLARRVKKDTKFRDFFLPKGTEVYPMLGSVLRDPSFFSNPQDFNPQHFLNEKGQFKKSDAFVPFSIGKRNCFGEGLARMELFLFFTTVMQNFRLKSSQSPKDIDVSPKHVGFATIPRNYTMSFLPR

CYP2C9 = CYP2C9 (Homo sapiens, UniProt P11712); details: literature reported Km; metabolite hydroxyl-diclofenac; cited from earlier work
CYP2B6 [2] = target: T3, CYP2B6 (Homo sapiens, UniProt P20813); details: literature reported Km; metabolite hydroxyl-bupropion; cited from earlier work
T3 sequence (P20813 1-491): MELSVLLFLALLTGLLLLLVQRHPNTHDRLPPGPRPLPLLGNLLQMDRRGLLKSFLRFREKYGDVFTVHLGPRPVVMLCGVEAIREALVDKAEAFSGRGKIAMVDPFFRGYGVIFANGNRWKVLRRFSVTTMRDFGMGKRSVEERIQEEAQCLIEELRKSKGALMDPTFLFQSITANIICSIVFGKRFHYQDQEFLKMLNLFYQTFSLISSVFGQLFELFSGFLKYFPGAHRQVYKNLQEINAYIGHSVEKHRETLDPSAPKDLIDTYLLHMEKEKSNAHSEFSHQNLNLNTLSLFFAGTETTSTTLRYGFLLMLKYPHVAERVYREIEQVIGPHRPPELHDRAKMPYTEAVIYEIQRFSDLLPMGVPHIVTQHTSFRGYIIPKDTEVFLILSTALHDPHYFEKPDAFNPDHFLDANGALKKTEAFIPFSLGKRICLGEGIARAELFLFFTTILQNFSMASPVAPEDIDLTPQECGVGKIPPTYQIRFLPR

CYP2C8 [3] = target: T1, CYP2C8; test: Single substrate (individual) CYP inhibition assay in human liver microsomes, LC-MS/MS; details: read-out: Single Substrate IC50; substrate Paclitaxel 5 μM; HLM 0.2 mg/mL; 30 min; n = 4
CYP3A4 [4] = target: T4, CYP3A4 (Homo sapiens, UniProt P08684); details: reported; cited from earlier work
CYP2B6 [5] = target: T3, CYP2B6; details: reported; cited from earlier work
CYP3A4 [6] = target: T4, CYP3A4; details: literature reported Km; metabolite hydroxyl-testosterone; cited from earlier work

T4 sequence (P08684 whole entry): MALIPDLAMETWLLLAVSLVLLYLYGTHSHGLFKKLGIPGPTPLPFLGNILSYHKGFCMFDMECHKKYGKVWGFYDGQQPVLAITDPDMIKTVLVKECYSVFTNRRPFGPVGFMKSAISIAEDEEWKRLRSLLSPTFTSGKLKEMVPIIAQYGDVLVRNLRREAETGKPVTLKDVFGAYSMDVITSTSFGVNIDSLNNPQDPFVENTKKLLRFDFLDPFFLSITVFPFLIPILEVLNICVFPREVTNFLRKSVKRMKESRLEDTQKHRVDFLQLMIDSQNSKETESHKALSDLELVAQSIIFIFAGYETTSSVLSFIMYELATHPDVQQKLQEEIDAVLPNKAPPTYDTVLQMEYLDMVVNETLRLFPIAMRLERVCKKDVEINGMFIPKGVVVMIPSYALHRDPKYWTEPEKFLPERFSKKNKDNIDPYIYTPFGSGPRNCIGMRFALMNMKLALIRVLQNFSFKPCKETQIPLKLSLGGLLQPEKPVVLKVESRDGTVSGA
Sequence of CYP2C9 (P11712 whole entry): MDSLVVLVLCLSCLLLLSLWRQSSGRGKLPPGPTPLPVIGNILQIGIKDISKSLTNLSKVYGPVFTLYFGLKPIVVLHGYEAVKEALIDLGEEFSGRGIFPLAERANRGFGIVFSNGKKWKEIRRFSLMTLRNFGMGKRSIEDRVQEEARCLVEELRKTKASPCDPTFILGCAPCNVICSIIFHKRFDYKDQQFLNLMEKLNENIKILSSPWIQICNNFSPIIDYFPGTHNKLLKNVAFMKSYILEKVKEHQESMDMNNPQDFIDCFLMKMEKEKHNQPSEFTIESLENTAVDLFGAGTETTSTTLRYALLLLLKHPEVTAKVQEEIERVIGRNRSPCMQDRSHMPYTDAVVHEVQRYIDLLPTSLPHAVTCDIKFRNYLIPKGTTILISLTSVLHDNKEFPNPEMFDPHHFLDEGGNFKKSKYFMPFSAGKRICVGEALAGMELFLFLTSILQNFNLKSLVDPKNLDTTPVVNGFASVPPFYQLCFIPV

Q: With CC(=O)O[C@H]1C(=O)[C@@]2(C)[C@H]([C@H](OC(=O)c3ccccc3)[C@]3(O)C[C@H](OC(=O)[C@H](O)[C@@H](NC(=O)c4ccccc4)c4ccccc4)C(C)=C1C3(C)C)[C@]1(OC(C)=O)CO[C@@H]1C[C@@H]2O [Paclitaxel] as the compound, how does the Km (CYP2C8 [1]) read?
A: Its Km is 11.5 ± 7.5 µM.

Q: With O=c1ccc2ccccc2o1 [Coumarin] as the compound, how does the Km (CYP2A6) read?
A: The Km was 1.17 ± 0.118 µM.

Q: Which Km (CYP2C9) does the source give for O=C(O)Cc1ccccc1Nc1c(Cl)cccc1Cl [Diclofenac] here?
A: Its Km is 22 ± 11 µM.

Q: With CC(NC(C)(C)C)C(=O)c1cccc(Cl)c1 (centres unmarked) [Bupropion] as the compound, how does the Km (CYP2B6 [2]) read?
A: The Km was 103 ± 7.65 µM.

Q: For CC(C)(O)c1ccccc1CC[C@@H](SCC1(CC(=O)O)CC1)c1cccc(/C=C/c2ccc3ccc(Cl)cc3n2)c1 [Montelukast], which IC50 (CYP2C8 [3]) is on record?
A: Its IC50 is 521 nM.

Q: Which results are given for CCOc1ccc(NC(C)=O)cc1 [Phenacetin]?
A: Inhibition of CYP3A4 by probe substrate (CYP3A4 [4]): weakly inhibit; Inhibition of CYP2B6 by probe substrate (CYP2B6 [5]): weakly inhibit

Q: For C[C@]12CC[C@H]3[C@@H](CCC4=CC(=O)CC[C@@]43C)[C@@H]1CC[C@@H]2O [Testosterone], which Km (CYP3A4 [6]) is on record?
A: The Km was 48.5 ± 3.75 µM.
